Laboratory results published in publication PMC10253456, “Investigating the Contribution of Major Drug-Metabolising Enzymes to Possum-Specific Fertility Control” (International Journal of Molecular Sciences, 2023).
Like-named read-outs stand apart in the source and are kept apart here.

Key:
[1] = tested on: UGT2B (heading: UGT2B4); assay: in vitro; settings: BALB/c, mouse, pH 7.4
[2] = tested on: UGT2B (heading: UGT2B4); assay: in vitro; settings: avian (mallards and a swan), pH 7.4
[3] = tested on: CYP3A; assay: CYP3A catalytic activity (erythromycin N-demethylation) in possum liver microsomes; settings: for Percent control catalytic activity at estimated IC50 / Percent control catalytic activity at estimated 2-fold IC50: possum liver microsomes, initial screen n=1; for Percent control catalytic activity at estimated IC50: compounds without reported IC50 at 1 µM; for Percent control catalytic activity at estimated 2-fold IC50: compounds without reported IC50 at 5 µM
Method: (§1) Possums were collected from the Otago Peninsula (Dunedin) and the Okuti Valley, Banks Peninsula (Christchurch) in New Zealand in collaboration with the Otago Peninsula Biodiversity Group and Manaaki Whenua-Landcare Research, respectively. […] Possums were caged and humanely killed by a blow to the head, and the livers were harvested, snap-frozen in liquid nitrogen, and stored in a freezer at −80 °C until the preparation of microsomal fractions. […] Mice were euthanised by carbon dioxide inhalation and the livers were removed and microsomes prepared. […] The livers from avian species (mallards and a swan) were kindly donated by a local bird hunting group based in Dunedin, New Zealand. The livers from avian species were treated similarly to those mentioned above for the possum samples.
(§2) Microsomal preparation was carried out as previously described [76]. […] All procedures were performed at 0–4 °C. The liver samples were minced and homogenised in Buffer A (0.1 M Tris, 0.1 M potassium chloride, 1 mM EDTA, and 20 μM butylated hydroxytoluene, at pH = 7.4) using the Teflon-glass homogeniser (5–6 vertical passes). The samples were centrifuged at 10,000× g for 20 min. The supernatant was then transferred into another set of centrifuge tubes and spun at 100,000× g for 60 min. The pellet was resuspended in Buffer B (0.1 M potassium pyrophosphate, 1 mM EDTA, and 20 μM butylated hydroxytoluene, at pH = 7.4), homogenised, and recentrifuged at 100,000× g for 60 min. Finally, the pellet was homogenised in 1–2 mL of Buffer C (10 mM Tris-HCl, 1 mM EDTA, and 4% glycerol (v/v)), and stored at −80 °C until use. The protein concentration of the microsomes was determined using the bicinchoninic acid (BCA) method [77].
(§3) CYP3A catalytic activity was determined using the erythromycin N-demethylation activity assay, as described [78]. The reaction mixture (final volume of 1 mL and final protein concentration of 1 mg) contained 500 µL of microsomes in 0.1 M phosphate buffer (pH 7.4) and 400 µL of erythromycin buffer (0.45 mM), and 50 µL of the test compound was pre-warmed at 37 °C for 2 min. The reaction was initiated with 50 µL of 2.5 mM nicotinamide adenine dinucleotide phosphate (NADP^+) and incubated for 30 min at 37 °C. […] The tubes were vortexed and left for 5 min (at room temperature), and then 330 µL of saturated barium hydroxide was added. The tubes were further vortexed and left for 5 min (at room temperature). The tubes were then centrifuged at 1800× g for 10 min. To 830 µL of the supernatant, 330 µL of Nash reagent (30% (w/v) ammonium acetate, 0.4% (v/v) acetylacetone) was added and further incubated for 30 min at 60 °C. The blank tube contained 330 µL of Nash reagent and 830 µL of Milli-Q water. […] The CYP3A activities were determined in nmol/mg/min using standard curve data. Results presented are the mean ± SEM of 3 independent experiments performed in duplicate unless otherwise stated.

[4] = tested on: UGT2B; settings: avian; compound at estimated 2-fold IC50
[5] = tested on: UGT2B (heading: UGT2B4); assay: p-nitrophenol glucuronidation activity in possum liver microsomes; format: biochemical, possum (Trichosurus vulpecula); settings: possum (Trichosurus vulpecula)
[6] = tested on: UGT2B; assay: as above; format: biochemical, possum (Trichosurus vulpecula); settings: compound at estimated 2-fold IC50
[7] = tested on: CYP3A; assay: CYP3A catalytic activity (erythromycin N-demethylation) in mouse liver microsomes; settings: for Percent control catalytic activity at estimated IC50 / Percent control catalytic activity at estimated 2-fold IC50: mouse liver microsomes, initial screen n=1; for Percent control catalytic activity at estimated IC50: compounds without reported IC50 at 1 µM; for Percent control catalytic activity at estimated 2-fold IC50: compounds without reported IC50 at 5 µM
[8] = tested on: UGT2B; assay: p-nitrophenol glucuronidation activity in mouse liver microsomes
[9] = tested on: UGT2B; assay: p-nitrophenol glucuronidation activity in pooled human liver microsomes
[10] = tested on: UGT2B (heading: UGT2B4); assay: in vitro; settings: human, pH 7.4
[11] = tested on: UGT2B (heading: UGT2B4); assay: p-nitrophenol glucuronidation activity in mouse liver microsomes; settings: BALB/c, mouse
[12] = tested on: UGT2B (heading: UGT2B4); assay: p-nitrophenol glucuronidation activity in pooled human liver microsomes; settings: human, pooled human liver microsomes (50 donors), pH 7.4, probe p-nitrophenol (0.5 mM final, from 50 µL of 5 mM in 500 µL)
[13] = tested on: CYP3A; settings: avian; compound at estimated 2-fold IC50 (5 µM where none reported)
Method: as §1, §2, §3

[14] = tested on: CYP3A; assay: CYP3A catalytic activity (erythromycin N-demethylation) in pooled human liver microsomes; settings: compound at estimated 2-fold IC50 (5 µM where none reported)
Method: as §3

[15] = tested on: UGT2B4, UGT2B7, UGT2B15, and UGT2B17; settings: cited from earlier work
[16] = tested on: UGT isoforms of the UGT1 and UGT2B families; parameters: method as in PMID 25008344; settings: pooled human liver and intestinal microsomes; read-out: concentration reducing glucuronidation of 4-methylumbelliferone by ~50% of the control; cited from earlier work
[17] = liver microsomes, pH 7.4, probe p-nitrophenol (0.5 mM final, from 50 µL of 5 mM in 500 µL), compound at estimated IC50, read-out: % of control (UGT2B4 catalytic activity at IC50)
[18] = mouse, compound at estimated 2-fold IC50
[19] = pooled human liver microsomes, compound at estimated 2-fold IC50
[20] = pH 7.4, compound at estimated IC50, read-out: % of control (UGT2B4 catalytic activity at IC50)
[21] = liver microsomes, pH 7.4, probe p-nitrophenol (0.5 mM final, from 50 µL of 5 mM in 500 µL)
[22] = possum, compound at estimated 2-fold IC50 (5 µM where none reported)
[23] = mouse, compound at estimated 2-fold IC50 (5 µM where none reported)

## CC(=O)O[C@H](CC=C(C)C)C1=CC(=O)c2c(O)ccc(O)c2C1=O [Acetylshikonin]
[1]
  activity: 93%
[2]
  activity at 30 min: 87%
[3]
  Percent control catalytic activity at estimated IC50: 128 percent control
  Percent control catalytic activity at estimated 2-fold IC50: 112 percent control
[4]
  % of control (UGT2B4 catalytic activity at 2-fold IC50): 84 % of control
  UGT2B4 catalytic activity at 2-fold IC50: 0.53 ± 0.08 µmol/mg/min
[5]; [17]
  activity at 30 min: 96%
[6]
  % of control (UGT2B4 catalytic activity at 2-fold IC50): 101 % of control
  UGT2B4 catalytic activity at 2-fold IC50: 3.70 ± 0.18 µmol/mg/min
[7]
  Percent control catalytic activity at estimated IC50: 100 percent control
  Percent control catalytic activity at estimated 2-fold IC50: 93 percent control
[8]; [18]
  % of control (UGT2B4 catalytic activity at 2-fold IC50): 94 % of control
  UGT2B4 catalytic activity at 2-fold IC50: 2.92 ± 0.22 µmol/mg/min
[9]; [19]
  % of control (UGT2B4 catalytic activity at 2-fold IC50): 100 % of control
  UGT2B4 catalytic activity at 2-fold IC50: 3.70 µmol/mg/min
[10]
  activity: 98%

## O=c1cc(-c2ccccc2)oc2cc(O)c(O)c(O)c12 [Baicalein]
[1]
  activity: 96%
[2]
  activity at 30 min: 56%
[3]
  Percent control catalytic activity at estimated IC50: 102 percent control
  Percent control catalytic activity at estimated 2-fold IC50: 112 percent control
[4]
  % of control (UGT2B4 catalytic activity at 2-fold IC50): 44 % of control
  UGT2B4 catalytic activity at 2-fold IC50: 0.17 ± 0.06 µmol/mg/min
[5]; [20]
  activity at 30 min: 105%
[6]
  % of control (UGT2B4 catalytic activity at 2-fold IC50): 106 % of control
  UGT2B4 catalytic activity at 2-fold IC50: 3.91 ± 0.20 µmol/mg/min
[7]
  Percent control catalytic activity at estimated IC50: 114 percent control
  Percent control catalytic activity at estimated 2-fold IC50: 99 percent control
[8]
  % of control (UGT2B4 catalytic activity at 2-fold IC50): 95
  UGT2B4 catalytic activity at 2-fold IC50: 3.08±0.04
[9]
  UGT2B4 catalytic activity at 2-fold IC50: 3.95
[10]
  activity: 97%

## C[C@@H]1CC[C@H]2C(C)(C)[C@H]3C[C@@]12CC[C@@]3(C)O [Cedrol]
[2]
  activity at 30 min: 96%
[3]
  Percent control catalytic activity at estimated IC50: 107 percent control
  Percent control catalytic activity at estimated 2-fold IC50: 99 percent control
[4]
  % of control (UGT2B4 catalytic activity at 2-fold IC50): 91 % of control
  UGT2B4 catalytic activity at 2-fold IC50: 0.56 ± 0.13 µmol/mg/min
[5]; [17]
  activity at 30 min: 93%
[6]
  % of control (UGT2B4 catalytic activity at 2-fold IC50): 92 % of control
  UGT2B4 catalytic activity at 2-fold IC50: 3.78 ± 0.13 µmol/mg/min
[7]
  Percent control catalytic activity at estimated IC50: 90 percent control
  Percent control catalytic activity at estimated 2-fold IC50: 62 percent control
[11]; pH 7.4
  activity at 30 min: 84%
[8]; [18]
  % of control (UGT2B4 catalytic activity at 2-fold IC50): 84 % of control
  UGT2B4 catalytic activity at 2-fold IC50: 2.57 ± 0.16 µmol/mg/min
[12]
  activity at 30 min: 98%
[9]; [19]
  % of control (UGT2B4 catalytic activity at 2-fold IC50): 98 % of control
  UGT2B4 catalytic activity at 2-fold IC50: 3.85 µmol/mg/min

## CC(C)=CCC[C@](C)(O[C@@H]1O[C@H](CO)[C@@H](O)[C@H](O)[C@H]1O)[C@H]1CC[C@]2(C)[C@@H]1[C@H](O)C[C@@H]1[C@@]3(C)CC[C@H](O)C(C)(C)[C@@H]3[C@@H](O)C[C@]12C [Ginsenoside F1]
[1]
  activity: 132%
[2]
  activity at 30 min: 110%
[3]
  Percent control catalytic activity at estimated IC50: 120 percent control
[4]
  % of control (UGT2B4 catalytic activity at 2-fold IC50): 99 % of control
  UGT2B4 catalytic activity at 2-fold IC50: 0.66 ± 0.14 µmol/mg/min
[5]; [17]
  activity at 30 min: 100%
[6]
  % of control (UGT2B4 catalytic activity at 2-fold IC50): 109 % of control
  UGT2B4 catalytic activity at 2-fold IC50: 4.14 ± 0.18 µmol/mg/min
[7]
  Percent control catalytic activity at estimated IC50: 82 percent control
[8]; [18]
  % of control (UGT2B4 catalytic activity at 2-fold IC50): 157 % of control
  UGT2B4 catalytic activity at 2-fold IC50: 4.36 ± 0.01 µmol/mg/min
[9]; [19]
  % of control (UGT2B4 catalytic activity at 2-fold IC50): 100 % of control
  UGT2B4 catalytic activity at 2-fold IC50: 4.01 µmol/mg/min
[10]
  activity: 101%

## CCC(C)n1ncn(-c2ccc(N3CCN(c4ccc(OCC5COC(Cn6cncn6)(c6ccc(Cl)cc6Cl)O5)cc4)CC3)cc2)c1=O (stereo not shown) [Itraconazole]
[2]
  activity at 30 min: 118%
[3]
  Percent control catalytic activity at estimated IC50: 141 percent control
  Percent control catalytic activity at estimated 2-fold IC50: 120 percent control
[4]
  % of control (UGT2B4 catalytic activity at 2-fold IC50): 94 % of control
  UGT2B4 catalytic activity at 2-fold IC50: 0.35 ± 0.05 µmol/mg/min
[5]; [17]
  activity at 30 min: 102%
[6]
  % of control (UGT2B4 catalytic activity at 2-fold IC50): 102 % of control
  UGT2B4 catalytic activity at 2-fold IC50: 3.06 ± 0.25 µmol/mg/min
[7]
  Percent control catalytic activity at estimated IC50: 91 percent control
  Percent control catalytic activity at estimated 2-fold IC50: 91 percent control
[11]; pH 7.4
  activity at 30 min: 125%
[8]
  % of control (UGT2B4 catalytic activity at 2-fold IC50): 106
  UGT2B4 catalytic activity at 2-fold IC50: 1.99 ± 0.24 µmol/mg/min
[12]
  activity at 30 min: 95%
[9]
  % of control (UGT2B4 catalytic activity at 2-fold IC50): 88
  UGT2B4 catalytic activity at 2-fold IC50: 2.80 µmol/mg/min

## O=C(/C=C/C=C/c1ccc2c(c1)OCO2)N1CCCCC1 [Piperine]
[2]
  activity at 30 min: 84%
[3]
  Percent control catalytic activity at estimated IC50: 127 percent control
  Percent control catalytic activity at estimated 2-fold IC50: 121 percent control
[4]
  % of control (UGT2B4 catalytic activity at 2-fold IC50): 86 % of control
  UGT2B4 catalytic activity at 2-fold IC50: 0.55 ± 0.06 µmol/mg/min
[5]; [20]
  activity at 30 min: 103%
[6]
  % of control (UGT2B4 catalytic activity at 2-fold IC50): 103 % of control
  UGT2B4 catalytic activity at 2-fold IC50: 4.29 ± 0.17 µmol/mg/min
[7]
  Percent control catalytic activity at estimated IC50: 126 percent control
  Percent control catalytic activity at estimated 2-fold IC50: 107 percent control
[11]; [21]
  activity at 30 min: 113%
[8]
  % of control (UGT2B4 catalytic activity at 2-fold IC50): 99
  UGT2B4 catalytic activity at 2-fold IC50: 2.70±0.07
[12]
  activity at 30 min: 94%
[9]
  % of control (UGT2B4 catalytic activity at 2-fold IC50): 92
  UGT2B4 catalytic activity at 2-fold IC50: 3.62

## Nc1ccc(S(=O)(=O)Nc2ccnn2-c2ccccc2)cc1 [Sulfaphenazole]
[2]
  activity at 30 min: 74%
[13]
  % of control (catalytic activity at 2-fold IC50): 110 % of control
  Catalytic activity at 2-fold IC50: 0.33 ± 0.06 nmol/mg/min
[14]
  % of control (catalytic activity at 2-fold IC50): 105 % of control
  Catalytic activity at 2-fold IC50: 0.47 nmol/mg/min
[3]
  Percent control catalytic activity at estimated IC50: 93 percent control
  Percent control catalytic activity at estimated 2-fold IC50: 84 percent control
[3]; [22]
  % of control (catalytic activity at 2-fold IC50): 111 % of control
  Catalytic activity at 2-fold IC50: 0.37 ± 0.04 nmol/mg/min
[4]
  % of control (UGT2B4 catalytic activity at 2-fold IC50): 74 % of control
  UGT2B4 catalytic activity at 2-fold IC50: 0.57 ± 0.14 µmol/mg/min
[5]; [17]
  activity at 30 min: 105%
[6]
  % of control (UGT2B4 catalytic activity at 2-fold IC50): 99 % of control
  UGT2B4 catalytic activity at 2-fold IC50: 3.59 ± 0.23 µmol/mg/min
[7]
  Percent control catalytic activity at estimated IC50: 96 percent control
  Percent control catalytic activity at estimated 2-fold IC50: 100 percent control
[7]; [23]
  % of control (catalytic activity at 2-fold IC50): 109 % of control
  Catalytic activity at 2-fold IC50: 0.68 ± 0.06 nmol/mg/min
[11]; [21]
  activity at 30 min: 103%
[8]
  UGT2B4 catalytic activity at 2-fold IC50: 2.27 ± 0.02 µmol/mg/min
[8]; [18]
  % of control (UGT2B4 catalytic activity at 2-fold IC50): 94 % of control
[9]
  % of control (UGT2B4 catalytic activity at 2-fold IC50): 98
  UGT2B4 catalytic activity at 2-fold IC50: 3.38 µmol/mg/min
[10]
  activity: 102%

## CC(C)(c1ccc(O)cc1)c1ccc(O)cc1 [bisphenol A]
[15]; UGT2B4
  type of inhibition: competitive
[15]; UGT2B7, UGT2B15, and UGT2B17
  type of inhibition: non-competitive

## COc1cc([C@@H]2Oc3ccc([C@H]4Oc5cc(O)cc(O)c5C(=O)[C@@H]4O)cc3O[C@H]2CO)ccc1O [isosilybin B]
[16]
  IC50: 187 µM

## COc1cc([C@@H]2Oc3cc([C@H]4Oc5cc(O)cc(O)c5C(=O)[C@@H]4O)ccc3O[C@H]2CO)ccc1O [silybin B]
[16]
  IC50: 87 µM
